Test results reported in US11357782B2, “Treprostinil administration by inhalation” (priority 2006, dated 2022).
“Also recorded” adds a separate entry of the source.

Legend:
[1] = test system: patients with pre-existing gas exchange problems; experiment: Ventilation-perfusion matching by multiple inert gas elimination technique (MIGET)
Procedure: The impact of SMI-TRE on ventilation-perfusion matching was assessed in five patients (30 μg TRE, n=2; 45 μg TRE, n=1; 60 μg TRE, n=2) with pre-existing gas exchange problems by use of the multiple inert gas elimination technique (MIGET), see e.g. Wagner PD, Saltzman HA, West JB. Measurement of continuous distributions of ventilation-perfusion ratios: theory. J Appl Physiol. 1974; 36:588-99; Ghofrani HA, Wiedemann R, Rose F, Schermuly RT, Olschewski H, Weissmann N et al. Sildenafil for treatment of lung fibrosis and pulmonary hypertension: a randomised controlled trial. Lancet. 2002; 360:895-900, both incorporated herein in their entirety.
The inhalation of a highly concentrated aerosol can be in theory prone to disturbances of gas exchange because the deposition of even small amounts of aerosol may deliver high doses locally and thereby antagonize the hypoxic pulmonary vasoconstriction in poorly ventilated areas. This would then lead to increased shunt flow or increase of low ventilation/perfusion (V/Q) areas. This question was addressed in five patients with the multiple inert gas elimination technique (MIGET), the gold-standard for intrapulmonary V/Q ratio determination. The MIGET patients were selected for pre-existing gas exchange limitations. […] Etiologies were iPAH (n=1), CTEPH (n=3), pulmonary fibrosis (n=1).

[2] = Aerosol quality by laser diffractometry (Respimat SMI); format: physicochemical; conditions: treprostinil-aerosol from Respimat SMI
Excerpt: Placebo and treprostinil was applied with the Respimat® SMI. […] Eur. Respir.

[3] = test system: patients with moderate to severe precapillary pulmonary hypertension; experiment: Acute vasodilator challenge during right heart catheter investigation: inhaled treprostinil applied by soft mist inhaler (Example 1); conditions: for CO (max) / HR (max) / SvO2 (max): highest value; for CO (max) / HR (max) / SvO2 (max) / PAP (min) / PVR (min) / SAP (min) / SVR (min) / SaO2 (min): mean ± SEM; for PAP (min): lowest value during 120 min observation; for PVR (min) / SAP (min) / SVR (min) / SaO2 (min): lowest value; for pulmonary vascular resistance (PVR) reduced to: Respimat SMI, mean±95% confidence interval
Procedure: A study was conducted of acute vasodilator challenge during right heart catheter investigation to determine the safety, tolerability and pulmonary vasodilatory potency of inhaled treprostinil applied in seconds by a soft mist inhaler (SMI-TRE).
Inhaled nitric oxide (20 ppm; n=45) and inhaled treprostinil sodium (TRE; n=41) or placebo (n=4) were applied once during right heart catheter investigation. TRE was delivered in 2 breaths (1000 μg/ml aerosol concentration; 30 μg dose; n=12), 3 breaths (1000 μg/ml; 45 μg; n=9) or 2 breaths (2000m/m1; 60 μg; n=20) from a Respimat® SMI. Pulmonary hemodynamics and blood gases were measured at defined time points, observation time following TRE application was 120 minutes.
• A total number of 45 patients with moderate to severe precapillary pulmonary hypertension were enrolled. […] Disease etiologies were idiopathic PAH (iPAH) (n=13), PAH other (n=11), chronic thromboembolic pulmonary hypertension (CTEPH) (n=17) and pulmonary fibrosis (n=4).
Baseline values were determined 20-30 minutes after placement of the catheter. Heart rate, pulmonary and systemic blood pressure and cardiac output were measured and blood gases were taken during each pharmacological intervention at defined time points. Pharmacological interventions included the inhalation of 20 ppm nitric oxide (NO) after evaluation of baseline parameters (n=45) and the consecutive inhalation of placebo (n=4), 30 μg SMI-TRE (n=12), 45 μg SMI-TRE (n=9) or 60 μg (n=20) SMI-TRE. Placebo and treprostinil was applied with the Respimat® SMI. For filling of this device with treprostinil sodium, the placebo solution was withdrawn from the device with a syringe and treprostinil solution was injected into the device under sterile conditions. Aerosol quality was controlled before and after refilling of the SMI devices by laser diffractometry, see e.g. Gessler T., Schmehl T., Hoeper M.M., Rose F., Ghofrani H.A., Olschewski H. et al. Ultrasonic versus jet nebulization of iloprost in severe pulmonary hypertension. Eur. Respir. J. 2001; 17:14-19 incorporated herein in its entirety. […] The aerosol volume delivered by one cycle from the SMI was 15 μl. The solution used for aerosol generation was prepared from treprostinil sodium salt using a standard protocol. The SMI was either filled with a concentration of 1000 μg/ml treprostinil sodium (one aerosol puff=15 μg TRE) or with 2000 μg/ml (one puff=30 μg TRE). The different doses were applied as 2 puffs 1000 μg/ml (30 μg), 3 puffs 1000m/m1 (45 μg) and 2 puffs 2000 μg/ml (60 μg). The placebo was inhaled as 2 puffs from a placebo-SMI. Hemodynamics and gas-exchange parameters were recorded for 120 minutes after TRE inhalation.

Question: With `CCCCC[C@H](O)CC[C@@H]1[C@H]2Cc3cccc(OCC(=O)[O-])c3C[C@H]2C[C@H]1O.[Na+]` [TRE] as the compound, how does the shunt flow ([1]; 60 minutes after SMI-TRE, mean±95% confidence interval, n=5) read?
Answer: 8.3±3.4%

Question: What about the “low V/Q areas or shunt fraction” value ([1]; after inhalation of SMI-TRE, n=5) of the same compound?
Answer: No significant increase

Question: And the “maximal relative reduction of SaO2” value ([1]; five MIGET patients, compared to baseline values)?
Answer: −3.8±1.5%

Question: What about the aerosol particles mass median aerodynamic diameter [2] of the same compound?
Answer: 4 to 5 µm

Question: What about the “120 minute area under the curve for PVR” value ([3]; 30 μg TRE) of the same compound?
Answer: −870±940 min %

Question: And the “duration of effect on pulmonary vascular resistance” value ([3]; 30 μg TRE, compared with 45 and 60 μg)?
Answer: somewhat shorter effect

Question: What about the “CO (max)” value ([3]; 30 μg TRE, n=12) of the same compound?
Answer: 108.8 ± 3.8% of baseline values

Question: And the “HR (max)” value ([3]; 30 μg TRE, n=12)?
Answer: 106.1 ± 2.9% of baseline values

Question: And the “SvO2 (max)” value ([3]; 30 μg TRE, n=12)?
Answer: 102.4 ± 1.3% of baseline values

Question: And the “PAP (min)” value ([3]; 30 μg TRE, n=12)?
Answer: 83.4 ± 3.2% of baseline values

Question: And the “PVR (min)” value ([3]; 30 μg TRE, n=12)?
Answer: 84.4 ± 4.4% of baseline values

Question: And the “SAP (min)” value ([3]; 30 μg TRE, n=12)?
Answer: 97.3 ± 1.9% of baseline values

Question: What about the “SVR (min)” value ([3]; 30 μg TRE, n=12) of the same compound?
Answer: 97.7 ± 4.2% of baseline values

Question: And the “SaO2 (min)” value ([3]; 30 μg TRE, n=12)?
Answer: 101 ± 0.3% of baseline values

Question: And the “pulmonary vascular resistance (PVR) reduced to” value ([3]; 30 μg, 2 breaths 1000 μg/ml)?
Answer: 84.4±8.7 % of baseline values

Question: And the “120 minute area under the curve for PVR” value ([3]; 45 μg TRE)?
Answer: −2450±2070 min %

Question: And the “CO (max)” value ([3]; 45 μg TRE, n=9)?
Answer: 108.6 ± 5.6% of baseline values

Question: And the “HR (max)” value ([3]; 45 μg TRE, n=9)?
Answer: 99.1 ± 2.4% of baseline values

Question: And the “SvO2 (max)” value ([3]; 45 μg TRE, n=9)?
Answer: 104.5 ± 4.4% of baseline values

Question: What about the “PAP (min)” value ([3]; 45 μg TRE, n=9) of the same compound?
Answer: 77.6 ± 6.8% of baseline values

Question: What about the “PVR (min)” value ([3]; 45 μg TRE, n=9) of the same compound?
Answer: 71.4 ± 8.9% of baseline values

Question: And the “SAP (min)” value ([3]; 45 μg TRE, n=9)?
Answer: 96.1 ± 1.5% of baseline values

Question: And the “SVR (min)” value ([3]; 45 μg TRE, n=9)?
Answer: 92 ± 3.9% of baseline values

Question: What about the “SaO2 (min)” value ([3]; 45 μg TRE, n=9) of the same compound?
Answer: 94.4 ± 1.8% of baseline values

Question: What about the “pulmonary vascular resistance (PVR) reduced to” value ([3]; 45 μg, 3 breaths 1000 μg/ml) of the same compound?
Answer: 71.4±17.5 % of baseline values

Question: What about the “120 minute area under the curve for PVR” value ([3]; 60 μg TRE) of the same compound?
Answer: −2000±900 min %

Question: What about the “CO (max)” value ([3]; 60 μg TRE, n=20) of the same compound?
Answer: 103.8 ± 2.0% of baseline values

Question: What about the “HR (max)” value ([3]; 60 μg TRE, n=20) of the same compound?
Answer: 101.1 ± 0.9% of baseline values

Question: And the “SvO2 (max)” value ([3]; 60 μg TRE, n=20)?
Answer: 102 ± 1.0% of baseline values

Question: And the “PAP (min)” value ([3]; 60 μg TRE, n=20)?
Answer: 79.5 ± 2.4% of baseline values

Question: And the “PVR (min)” value ([3]; 60 μg TRE, n=20)?
Answer: 77.5 ± 3.7% of baseline values

Question: And the “SAP (min)” value ([3]; 60 μg TRE, n=20)?
Answer: 93.6 ± 2.9% of baseline values

Question: What about the “SVR (min)” value ([3]; 60 μg TRE, n=20) of the same compound?
Answer: 91.3 ± 2.1% of baseline values

Question: What about the “SaO2 (min)” value ([3]; 60 μg TRE, n=20) of the same compound?
Answer: 95.8 ± 0.9% of baseline values

Question: And the “pulmonary vascular resistance (PVR) reduced to” value ([3]; 60 μg, 2 breaths)?
Answer: 77.5±7.2 % of baseline values

Question: And the “effect on systemic vascular resistance and pressure” value ([3]; 30-60 μg from Respimat SMI)?
Answer: very small and not clinically significant

Question: What about the systemic side effects ([3]; 30-60 μg from Respimat SMI) of the same compound?
Answer: No systemic side effects

Question: And the “tolerability / side effects” value ([3]; 30-60 μg from Respimat SMI, listed as SMI-TRE)?
Answer: No significant side effects; also recorded: well tolerated; also recorded: only mild and transient cough for a maximum of one minute

Question: And the “duration of PVR reduction / pulmonary vasodilation” value ([3]; 45 and 60 μg, single inhalation of 2-3 breaths, outlasted observation time)?
Answer: > 120 min

Question: What about the cardiac output ([3]; 120 min observation period) of the same compound?
Answer: significantly increased

Question: What about the gas exchange ([3]; 120 min observation period) of the same compound?
Answer: not influenced

Question: What about the heart rate ([3]; 120 min observation period) of the same compound?
Answer: rather unchanged
